ChEMBL document CHEMBL5046301, “pH-Responsive Antimicrobial Peptide with Selective Killing Activity for Bacterial Abscess Therapy” (J Med Chem, 2022)

Assays:
[1] = test system: Staphylococcus epidermidis; assay: Antibacterial activity against Staphylococcus epidermidis ATCC 12228 assessed as inhibition of bacterial growth at pH 6.5 incubated for 24 hrs by NCCLS protocol based method; assay type: functional
Staphylococcus aureus [2] = assay: Antibacterial activity against methicillin-resistant Staphylococcus aureus ATCC 43300 assessed as inhibition of bacterial growth at pH 7.4 incubated for 24 hrs by NCCLS protocol based method; assay type: functional
Salmonella typhimurium [3] = assay: Antibacterial activity against Salmonella enterica subsp. enterica serovar Typhimurium C77-31 assessed as inhibition of bacterial growth at pH 7.4 incubated for 24 hrs by NCCLS protocol based method; assay type: functional
Salmonella typhimurium [4] = assay: Antibacterial activity against Salmonella typhimurium ATCC 14028 assessed as inhibition of bacterial growth at pH 7.4 incubated for 24 hrs by NCCLS protocol based method; assay type: functional, Salmonella enterica subsp. enterica serovar Typhimurium; details: Salmonella enterica
Escherichia coli [5] = assay: Antibacterial activity against Escherichia coli ATCC 25922 assessed as inhibition of bacterial growth at pH 7.4 incubated for 24 hrs by NCCLS protocol based method; assay type: functional
Pseudomonas aeruginosa [6] = assay: Antibacterial activity against Pseudomonas aeruginosa ATCC 27853 assessed as inhibition of bacterial growth at pH 7.4 incubated for 24 hrs by NCCLS protocol based method; assay type: functional
Staphylococcus aureus [7] = assay: Antibacterial activity against Staphylococcus aureus ATCC 29213 assessed as inhibition of bacterial growth at pH 7.4 incubated for 24 hrs by NCCLS protocol based method; assay type: functional
[8] = test system: Staphylococcus epidermidis; assay: Antibacterial activity against Staphylococcus epidermidis ATCC 12228 assessed as inhibition of bacterial growth at pH 7.4 incubated for 24 hrs by NCCLS protocol based method; assay type: functional
Staphylococcus aureus [9] = assay: Antibacterial activity against Staphylococcus aureus ATCC 25923 assessed as inhibition of bacterial growth at pH 7.4 incubated for 24 hrs by NCCLS protocol based method; assay type: functional
Salmonella typhimurium [10] = assay: Antibacterial activity against Salmonella enterica subsp. enterica serovar Typhimurium C77-31 assessed as inhibition of bacterial growth at pH 6.5 incubated for 24 hrs by NCCLS protocol based method; assay type: functional
Salmonella typhimurium [11] = assay: Antibacterial activity against Salmonella typhimurium ATCC 14028 assessed as inhibition of bacterial growth at pH 6.5 incubated for 24 hrs by NCCLS protocol based method; assay type: functional, Salmonella enterica subsp. enterica serovar Typhimurium; details: Salmonella enterica
Escherichia coli [12] = assay: Antibacterial activity against Escherichia coli ATCC 25922 assessed as inhibition of bacterial growth at pH 6.5 incubated for 24 hrs by NCCLS protocol based method; assay type: functional
Pseudomonas aeruginosa [13] = assay: Antibacterial activity against Pseudomonas aeruginosa ATCC 27853 assessed as inhibition of bacterial growth at pH 6.5 incubated for 24 hrs by NCCLS protocol based method; assay type: functional
Staphylococcus aureus [14] = assay: Antibacterial activity against Staphylococcus aureus ATCC 29213 assessed as inhibition of bacterial growth at pH 6.5 incubated for 24 hrs by NCCLS protocol based method; assay type: functional
Staphylococcus aureus [15] = assay: Antibacterial activity against Staphylococcus aureus ATCC 25923 assessed as inhibition of bacterial growth at pH 6.5 incubated for 24 hrs by NCCLS protocol based method; assay type: functional
Staphylococcus aureus [16] = assay: Antibacterial activity against methicillin-resistant Staphylococcus aureus ATCC 43300 assessed as inhibition of bacterial growth at pH 6.5 incubated for 24 hrs by NCCLS protocol based method; assay type: functional
[17] = Hemolytic activity in human RBC assessed as hemoglobin release at pH 7.4 incubated for 1 hr; assay type: toxicity, cell-based; details: erythrocyte, pH 7.4, 1 h
[18] = Hemolytic activity against human RBC assessed as hemoglobin release at pH 6.5 incubated for 1 hrs; assay type: toxicity, cell-based; details: erythrocyte, pH 6.5, 1 h
[19] = Ratio of MHC for hemolytic activity against human RBC assessed as hemoglobin release at pH 6.5 to MHC for hemolytic activity against human RBC assessed as hemoglobin release at pH 7.4; assay type: toxicity, cell-based, Erythrocyte; details: human red blood cells (RBC)
[20] = Cytotoxicity against mouse RAW264.7 cells assessed as inhibition of cell growth at pH 7.4 measured after 24 hrs by MTT assay; assay type: toxicity, cell-based
[21] = Cytotoxicity against mouse RAW264.7 cells assessed as inhibition of cell growth at pH 6.5 measured after 24 hrs by MTT assay; assay type: toxicity, cell-based

H-FLFHLIPHVIHGLVKAIRK-NH2
MIC [1]: 1 µM
MIC (Staphylococcus aureus [2]): 2 µM
MIC (Salmonella typhimurium [3]): 4 µM
MIC (Salmonella typhimurium [4]): 8 µM
MIC (Escherichia coli [5]): 2 µM
MIC (Pseudomonas aeruginosa [6]): 4 µM
MIC (Staphylococcus aureus [7]): 2 µM
MIC [8]: 1 µM
MIC (Staphylococcus aureus [9]): 2 µM
MIC (Salmonella typhimurium [10]): 2 µM
MIC (Salmonella typhimurium [11]): 4 µM
MIC (Escherichia coli [12]): 1 µM
MIC (Pseudomonas aeruginosa [13]): 1 µM
MIC (Staphylococcus aureus [14]): 1 µM
MIC (Staphylococcus aureus [15]): 1 µM
MIC (Staphylococcus aureus [16]): 1 µM
MHC10 [17]: 16 µM
MHC10 [18]: 4 µM
selectivity ratio [19]: 0.25
IC50 at 24 h [20]: 4.41 µM
IC50 at 24 h [21]: 3.15 µM

H-FLFKLIPKVIKGLVHAIHH-NH2
MIC [1]: 2 µM
MIC (Staphylococcus aureus [2]): 2 µM
MIC (Salmonella typhimurium [3]): 8 µM
MIC (Salmonella typhimurium [4]): 8 µM
MIC (Escherichia coli [5]): 4 µM
MIC (Pseudomonas aeruginosa [6]): 8 µM
MIC (Staphylococcus aureus [7]): 2 µM
MIC [8]: 2 µM
MIC (Staphylococcus aureus [9]): 2 µM
MIC (Salmonella typhimurium [10]): 4 µM
MIC (Salmonella typhimurium [11]): 4 µM
MIC (Escherichia coli [12]): 4 µM
MIC (Pseudomonas aeruginosa [13]): 4 µM
MIC (Staphylococcus aureus [14]): 2 µM
MIC (Staphylococcus aureus [15]): 2 µM
MIC (Staphylococcus aureus [16]): 2 µM
MHC10 [17]: 64 µM
MHC10 [18]: 32 µM
selectivity ratio [19]: 0.5
IC50 at 24 h [20]: 4.37 µM
IC50 at 24 h [21]: 2.96 µM

H-FLHHLIPHVIHGLVHAIHH-NH2
MIC [1]: 8 µM
MIC (Staphylococcus aureus [2]): 4 µM
MIC (Salmonella typhimurium [3]): 16 µM
MIC (Salmonella typhimurium [4]): 16 µM
MIC (Escherichia coli [5]): 8 µM
MIC (Pseudomonas aeruginosa [6]): > 64 µM
MIC (Staphylococcus aureus [7]): > 64 µM
MIC [8]: 4 µM
MIC (Staphylococcus aureus [9]): 4 µM
MIC (Salmonella typhimurium [10]): 2 µM
MIC (Salmonella typhimurium [11]): 4 µM
MIC (Escherichia coli [12]): 2 µM
MIC (Pseudomonas aeruginosa [13]): 2 µM
MIC (Staphylococcus aureus [14]): 16 µM
MIC (Staphylococcus aureus [15]): 8 µM
MIC (Staphylococcus aureus [16]): 8 µM
MHC10 [17]: 64 µM
MHC10 [18]: 64 µM
selectivity ratio [19]: 1
IC50 at 24 h [20]: 70.1 µM
IC50 at 24 h [21]: 16.1 µM

H-HLDHLIPHVIHGLVHAIHH-NH2
MIC [1]: > 64 µM
MIC (Staphylococcus aureus [2]): > 64 µM
MIC (Salmonella typhimurium [3]): > 64 µM
MIC (Salmonella typhimurium [4]): > 64 µM
MIC (Escherichia coli [5]): > 64 µM
MIC (Pseudomonas aeruginosa [6]): > 64 µM
MIC (Staphylococcus aureus [7]): > 64 µM
MIC [8]: > 64 µM
MIC (Staphylococcus aureus [9]): > 64 µM
MIC (Salmonella typhimurium [10]): 64 µM
MIC (Salmonella typhimurium [11]): 64 µM
MIC (Escherichia coli [12]): 8 µM
MIC (Pseudomonas aeruginosa [13]): 32 µM
MIC (Staphylococcus aureus [14]): > 64 µM
MIC (Staphylococcus aureus [15]): > 64 µM
MIC (Staphylococcus aureus [16]): > 64 µM
MHC10 [17]: > 128 µM
MHC10 [18]: > 128 µM
IC50 at 24 h [20]: > 128 µM
IC50 at 24 h [21]: > 128 µM

H-HLEHLIPHVIHGLVHAIHH-NH2
MIC [1]: > 64 µM
MIC (Staphylococcus aureus [2]): > 64 µM
MIC (Salmonella typhimurium [3]): > 64 µM
MIC (Salmonella typhimurium [4]): > 64 µM
MIC (Escherichia coli [5]): > 64 µM
MIC (Pseudomonas aeruginosa [6]): > 64 µM
MIC (Staphylococcus aureus [7]): > 64 µM
MIC [8]: > 64 µM
MIC (Staphylococcus aureus [9]): > 64 µM
MIC (Salmonella typhimurium [10]): > 64 µM
MIC (Salmonella typhimurium [11]): 64 µM
MIC (Escherichia coli [12]): 4 µM
MIC (Pseudomonas aeruginosa [13]): 32 µM
MIC (Staphylococcus aureus [14]): > 64 µM
MIC (Staphylococcus aureus [15]): > 64 µM
MIC (Staphylococcus aureus [16]): > 64 µM
MHC10 [17]: > 128 µM
MHC10 [18]: > 128 µM
IC50 at 24 h [20]: > 128 µM
IC50 at 24 h [21]: > 128 µM

H-HLHHLIPHVIHGLVHAIHH-NH2
MIC [1]: > 64 µM
MIC (Staphylococcus aureus [2]): 16 µM
MIC (Salmonella typhimurium [3]): 64 µM
MIC (Salmonella typhimurium [4]): 64 µM
MIC (Escherichia coli [5]): 16 µM
MIC (Pseudomonas aeruginosa [6]): > 64 µM
MIC (Staphylococcus aureus [7]): > 64 µM
MIC [8]: 32 µM
MIC (Staphylococcus aureus [9]): 32 µM
MIC (Salmonella typhimurium [10]): 2 µM
MIC (Salmonella typhimurium [11]): 8 µM
MIC (Escherichia coli [12]): 2 µM
MIC (Pseudomonas aeruginosa [13]): 8 µM
MIC (Staphylococcus aureus [14]): > 64 µM
MIC (Staphylococcus aureus [15]): > 64 µM
MIC (Staphylococcus aureus [16]): > 64 µM
MHC10 [17]: > 128 µM
MHC10 [18]: > 128 µM
IC50 at 24 h [20]: 66 µM
IC50 at 24 h [21]: 58.3 µM
